Earlier results as cited in patent publication US20260130963A1, “COMPOSITIONS COMPRISING RED YEAST RICE” (Meda Pharma S.p.A., priority 2021, published 2026).
≈ marks a conversion by molar mass, not a printed value.

Columns and labels:
[1] = “low solubility/high permeability”
[2] = in vivo

SMILES: CC[C@H](C)C(=O)O[C@H]1C[C@@H](C)C=C2C=C[C@H](C)[C@H](CC[C@@H]3C[C@@H](O)CC(=O)O3)[C@H]21 [Lovastatin]
- water solubility: 0.4 µg/mL (≈ 0.989 µM)
- BCS classification [1]: BCS Class II
- half-life [2]: 1 to 2 h
